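Where inhibition never reached the appropriate level, the endpoint shown equals the highest concentration tested. Otherwise, values were interpolated linearly from a five-concentration, 48-hour dose response in 96-well plates. TGI marks complete inhibition of growth.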
How the values were obtained:
Assay in all cases: NCI anticancer screen, dose series, 48 h
A498 renal = test system: A498 renal
MOLT-4 leukemia = test system: MOLT-4 leukemia
OVCAR-8 ovarian = test system: OVCAR-8 ovarian
CAKI-1 renal = test system: CAKI-1 renal
EKVX NSCLC = test system: EKVX NSCLC
KM12 colon = test system: KM12 colon
SNB-19 CNS = test system: SNB-19 CNS
KM20L2 colon = test system: KM20L2 colon
LOX IMVI melanoma = test system: LOX IMVI melanoma
SK-MEL-2 melanoma = test system: SK-MEL-2 melanoma
COLO 205 colon = test system: COLO 205 colon
K-562 leukemia = test system: K-562 leukemia
CCRF-CEM leukemia = test system: CCRF-CEM leukemia
SK-OV-3 ovarian = test system: SK-OV-3 ovarian
HCT-116 colon = test system: HCT-116 colon
NCI-H226 lung = test system: NCI-H226 lung
M19-MEL melanoma = test system: M19-MEL melanoma
ACHN renal = test system: ACHN renal
HOP-18 NSCLC = test system: HOP-18 NSCLC
DMS 273 small cell lung = test system: DMS 273 small cell lung
SK-MEL-28 melanoma = test system: SK-MEL-28 melanoma
XF 498 CNS = test system: XF 498 CNS
OVCAR-5 ovarian = test system: OVCAR-5 ovarian
NCI-H460 lung = test system: NCI-H460 lung
IGROV1 ovarian = test system: IGROV1 ovarian
SW-620 colon = test system: SW-620 colon
TK-10 renal = test system: TK-10 renal
HT29 colon = test system: HT29 colon
HCC-2998 colon = test system: HCC-2998 colon
HCT-15 colon = test system: HCT-15 colon
UO-31 renal = test system: UO-31 renal
SF-295 CNS = test system: SF-295 CNS
HOP-62 NSCLC = test system: HOP-62 NSCLC
RXF 393 renal = test system: RXF 393 renal
786-0 renal = test system: 786-0 renal
NCI-H522 lung = test system: NCI-H522 lung
DMS 114 small cell lung = test system: DMS 114 small cell lung
SN12C renal = test system: SN12C renal
M14 melanoma = test system: M14 melanoma
DLD-1 colon = test system: DLD-1 colon
UACC-62 melanoma = test system: UACC-62 melanoma
HOP-92 NSCLC = test system: HOP-92 NSCLC
SK-MEL-5 melanoma = test system: SK-MEL-5 melanoma
SNB-75 CNS = test system: SNB-75 CNS
SF-539 CNS = test system: SF-539 CNS
A549 NSCLC = test system: A549 NSCLC
OVCAR-3 ovarian = test system: OVCAR-3 ovarian
MALME-3M melanoma = test system: MALME-3M melanoma
U251 CNS = test system: U251 CNS
NCI-H23 lung = test system: NCI-H23 lung
HL-60(TB) leukemia = test system: HL-60(TB) leukemia
RPMI-8226 leukemia = test system: RPMI-8226 leukemia
LXFL 529 NSCLC = test system: LXFL 529 NSCLC
SF-268 CNS = test system: SF-268 CNS
SR leukemia = test system: SR leukemia
UACC-257 melanoma = test system: UACC-257 melanoma
DU-145 prostate = test system: DU-145 prostate
PC-3 prostate = test system: PC-3 prostate
MDA-MB-231 breast = test system: MDA-MB-231 breast
BT-549 breast = test system: BT-549 breast
MCF7 breast = test system: MCF7 breast
SNB-78 CNS = test system: SNB-78 CNS
MDA-MB-435 = test system: MDA-MB-435
T-47D breast = test system: T-47D breast
MDA-N = test system: MDA-N
HS 578T breast = test system: HS 578T breast
NCI/ADR-RES ovarian = test system: NCI/ADR-RES ovarian
OVCAR-4 ovarian = test system: OVCAR-4 ovarian

CNS(=O)(=O)NNS(=O)(=O)c1ccccc1
TGI (A498 renal): > 100 µM
TGI (MOLT-4 leukemia): > 100 µM
TGI (OVCAR-8 ovarian): > 100 µM
TGI (CAKI-1 renal): > 100 µM
TGI (EKVX NSCLC): > 100 µM
TGI (KM12 colon): > 100 µM
TGI (SNB-19 CNS): > 100 µM
TGI (KM20L2 colon): > 100 µM
TGI (LOX IMVI melanoma): > 100 µM
TGI (SK-MEL-2 melanoma): > 100 µM
TGI (COLO 205 colon): > 100 µM
TGI (K-562 leukemia): > 100 µM
TGI (CCRF-CEM leukemia): > 100 µM
TGI (SK-OV-3 ovarian): > 100 µM
TGI (HCT-116 colon): > 100 µM
TGI (NCI-H226 lung): > 100 µM
TGI (M19-MEL melanoma): > 100 µM
TGI (ACHN renal): > 100 µM
TGI (HOP-18 NSCLC): > 100 µM
TGI (DMS 273 small cell lung): > 100 µM
TGI (SK-MEL-28 melanoma): > 100 µM
TGI (XF 498 CNS): > 100 µM
TGI (OVCAR-5 ovarian): > 100 µM
TGI (NCI-H460 lung): > 100 µM
TGI (IGROV1 ovarian): > 100 µM
TGI (SW-620 colon): > 100 µM
TGI (TK-10 renal): > 100 µM
TGI (HT29 colon): > 100 µM
TGI (HCC-2998 colon): > 100 µM
TGI (HCT-15 colon): > 100 µM
TGI (UO-31 renal): > 100 µM
TGI (SF-295 CNS): > 100 µM
TGI (HOP-62 NSCLC): > 100 µM
TGI (RXF 393 renal): > 100 µM
TGI (786-0 renal): > 100 µM
TGI (NCI-H522 lung): > 100 µM
TGI (DMS 114 small cell lung): > 100 µM
TGI (SN12C renal): > 100 µM
TGI (M14 melanoma): > 100 µM
TGI (DLD-1 colon): > 100 µM
TGI (UACC-62 melanoma): > 100 µM
TGI (HOP-92 NSCLC): > 100 µM
TGI (SK-MEL-5 melanoma): > 100 µM
TGI (SNB-75 CNS): > 100 µM
TGI (SF-539 CNS): > 100 µM
TGI (A549 NSCLC): > 100 µM
TGI (OVCAR-3 ovarian): > 100 µM
TGI (MALME-3M melanoma): > 100 µM
TGI (U251 CNS): > 100 µM
TGI (NCI-H23 lung): > 100 µM
TGI (HL-60(TB) leukemia): > 100 µM
TGI (RPMI-8226 leukemia): > 100 µM
TGI (LXFL 529 NSCLC): > 100 µM
TGI (SF-268 CNS): > 100 µM
TGI (SR leukemia): > 100 µM
TGI (UACC-257 melanoma): > 100 µM

Cc1cnc(NCCCN(C)C)c2c1[nH]c1ccc3cc(O)ccc3c12
TGI (A498 renal): 3.71 µM
TGI (MOLT-4 leukemia): 0.534 µM
TGI (OVCAR-8 ovarian): 1.96 µM
TGI (CAKI-1 renal): 4.18 µM
TGI (EKVX NSCLC): 4.34 µM
TGI (KM12 colon): 10 µM
TGI (SNB-19 CNS): 3.12 µM
TGI (KM20L2 colon): 2.29 µM
TGI (LOX IMVI melanoma): 1.37 µM
TGI (SK-MEL-2 melanoma): 2.47 µM
TGI (COLO 205 colon): 1.57 µM
TGI (K-562 leukemia): 3.68 µM
TGI (CCRF-CEM leukemia): 5.88 µM
TGI (SK-OV-3 ovarian): 2.75 µM
TGI (DU-145 prostate): 4.03 µM
TGI (HCT-116 colon): 1.44 µM
TGI (PC-3 prostate): 2.21 µM
TGI (NCI-H226 lung): 1.73 µM
TGI (M19-MEL melanoma): 1.25 µM
TGI (ACHN renal): 4.89 µM
TGI (HOP-18 NSCLC): 5.97 µM
TGI (MDA-MB-231 breast): 2.83 µM
TGI (DMS 273 small cell lung): 1.24 µM
TGI (SK-MEL-28 melanoma): 2.86 µM
TGI (XF 498 CNS): 0.806 µM
TGI (OVCAR-5 ovarian): 3.95 µM
TGI (NCI-H460 lung): 1.25 µM
TGI (IGROV1 ovarian): 4.6 µM
TGI (SW-620 colon): 1.97 µM
TGI (TK-10 renal): 15.8 µM
TGI (HT29 colon): 2.53 µM
TGI (HCC-2998 colon): 1.98 µM
TGI (HCT-15 colon): 17 µM
TGI (UO-31 renal): 5.8 µM
TGI (SF-295 CNS): 2.89 µM
TGI (BT-549 breast): 3.12 µM
TGI (MCF7 breast): 2.15 µM
TGI (HOP-62 NSCLC): 1.86 µM
TGI (RXF 393 renal): 2.16 µM
TGI (786-0 renal): 1.84 µM
TGI (SNB-78 CNS): 3.86 µM
TGI (NCI-H522 lung): 0.624 µM
TGI (DMS 114 small cell lung): 0.993 µM
TGI (SN12C renal): 1.78 µM
TGI (M14 melanoma): 2.55 µM
TGI (DLD-1 colon): 3.7 µM
TGI (UACC-62 melanoma): 1.9 µM
TGI (MDA-MB-435): 2.3 µM
TGI (T-47D breast): 2.78 µM
TGI (HOP-92 NSCLC): 1.31 µM
TGI (SK-MEL-5 melanoma): 2.2 µM
TGI (MDA-N): 2.21 µM
TGI (SNB-75 CNS): 1.87 µM
TGI (SF-539 CNS): 1.64 µM
TGI (A549 NSCLC): 2.5 µM
TGI (OVCAR-3 ovarian): 1.59 µM
TGI (MALME-3M melanoma): 2.2 µM
TGI (U251 CNS): 1.02 µM
TGI (HS 578T breast): 2.22 µM
TGI (NCI-H23 lung): 2.04 µM
TGI (HL-60(TB) leukemia): 8.37 µM
TGI (NCI/ADR-RES ovarian): 20.1 µM
TGI (RPMI-8226 leukemia): 10.1 µM
TGI (LXFL 529 NSCLC): 1.76 µM
TGI (SF-268 CNS): 2.07 µM
TGI (OVCAR-4 ovarian): 1.19 µM
TGI (UACC-257 melanoma): 11.5 µM

CCCC1C(=O)CCc2c(OC)ccc(OC)c21 (stereo unspecified)
TGI (A498 renal): > 100 µM
TGI (MOLT-4 leukemia): > 100 µM
TGI (OVCAR-8 ovarian): > 100 µM
TGI (CAKI-1 renal): > 100 µM
TGI (EKVX NSCLC): > 100 µM
TGI (KM12 colon): > 100 µM
TGI (SNB-19 CNS): > 100 µM
TGI (KM20L2 colon): > 100 µM
TGI (LOX IMVI melanoma): > 100 µM
TGI (SK-MEL-2 melanoma): > 100 µM
TGI (COLO 205 colon): > 100 µM
TGI (K-562 leukemia): > 100 µM
TGI (CCRF-CEM leukemia): > 100 µM
TGI (SK-OV-3 ovarian): > 100 µM
TGI (HCT-116 colon): > 100 µM
TGI (M19-MEL melanoma): > 100 µM
TGI (ACHN renal): > 100 µM
TGI (HOP-18 NSCLC): > 100 µM
TGI (DMS 273 small cell lung): > 100 µM
TGI (XF 498 CNS): > 100 µM
TGI (OVCAR-5 ovarian): > 100 µM
TGI (NCI-H460 lung): > 100 µM
TGI (IGROV1 ovarian): > 100 µM
TGI (SW-620 colon): > 100 µM
TGI (TK-10 renal): > 100 µM
TGI (HT29 colon): > 100 µM
TGI (HCC-2998 colon): > 100 µM
TGI (HCT-15 colon): > 100 µM
TGI (UO-31 renal): > 100 µM
TGI (SF-295 CNS): > 100 µM
TGI (HOP-62 NSCLC): > 100 µM
TGI (RXF 393 renal): > 100 µM
TGI (786-0 renal): > 100 µM
TGI (SNB-78 CNS): > 100 µM
TGI (DMS 114 small cell lung): > 100 µM
TGI (SN12C renal): > 100 µM
TGI (M14 melanoma): > 100 µM
TGI (DLD-1 colon): > 100 µM
TGI (UACC-62 melanoma): > 100 µM
TGI (SK-MEL-5 melanoma): > 100 µM
TGI (SNB-75 CNS): > 100 µM
TGI (SF-539 CNS): > 100 µM
TGI (A549 NSCLC): > 100 µM
TGI (OVCAR-3 ovarian): > 100 µM
TGI (MALME-3M melanoma): > 100 µM
TGI (U251 CNS): > 100 µM
TGI (NCI-H23 lung): > 100 µM
TGI (HL-60(TB) leukemia): > 100 µM
TGI (RPMI-8226 leukemia): > 100 µM
TGI (LXFL 529 NSCLC): > 100 µM
TGI (SF-268 CNS): > 100 µM
TGI (OVCAR-4 ovarian): > 100 µM
TGI (UACC-257 melanoma): > 100 µM

From PubChem BioAssay (NCI)
